Measurements as given in patent US20260152494A1, “CDK2 INHIBITORS AND METHODS OF USING THE SAME” (Cedilla Therapeutics, Inc., priority 2022, published 2026).

Legend:
CDK2/Cyclin E1 [1] = biological target: T1, CDK2/Cyclin E1 (Homo sapiens, UniProt P24941); experiment: ADPGLO (CDK2/E1-37C) ADP-Glo Luminescent Kinase Assay; assay type: biochemical; settings: 0.18 nM CDK2/Cyclin E1, 100 μM ATP, 1.5 μM Histone H1, 37° C., 60 min preincubation
T1 construct: purchased Eurofins 14-475
Protocol: Example A2: ADPGLO (CDK2/E1-37C)
Inhibition of CDK2/Cyclin E1 activity by the presence of small molecules was evaluated using ADP-Glo Luminescent Kinase Assay (Promega). Activated CDK2/Cyclin E1 was incubated with its substrate Histone H1 (SignalChem H10-54N) in the kinase reaction buffer (100 μM ATP, 50 mM HEPES pH 7.5, 10 mM MgCl2, 1 mM EDTA, 2 mM DTT, 0.01% Brij35, 0.5 mg/mL BSA). Luminescence was recorded with an Envision plate reader (PerkinElmer).
Dose titrations of inhibitors in 100% DMSO were combined with 0.36 nM CDK2/Cyclin E1 in reaction buffer. The mixtures were incubated for 60 minutes at 37° C. before the addition of ATP and Histone H1 substrate to initiate the kinase reaction. The final conditions were 0.18 nM CDK2/Cyclin E1, 100 μM ATP, and 1.5 μM Histone H1. The reactions were incubated at 37° C. for 90 minutes before being stopped with the addition of ADP-Glo reagent. This mixture was incubated at room temperature for 60 minutes before Kinase Detection Solution is added to generate luminescence. The stopped reactions were analyzed on an Envision plate reader. The conversion ratios were normalized to yield % activity, plotted against compound concentration, and fit to a four-parameter equation to determine the IC50 for each compound.

[2] = tested on: Kuramochi cells labeled with mApple-H2B; experiment: IncuCyte cell proliferation assay; assay type: cell-based; settings: Kuramochi RB-WT cells, 72 hours, cell count normalized to DMSO
Protocol: Example A3: IncuCyte® Cell Proliferation Assay
IncuCyte® assay was used to measure the effect of disclosed compounds on cell proliferation. Fluorescent microscopy images of cells were taken immediately after compound treatment and 72 hours later. Image analysis software was used to obtain cell counts as a function of compound concentration. Kuramochi cells labeled with mApple-H2B were seeded on 384-well assay-ready plates. Plates were placed in an IncuCyte® (Sartorius) and scanned at 0 and 72 hours. IncuCyte® software was used to count the number of fluorescent nuclei in each well. The fold change in cell count from 0 to 72 hours in wells treated with increasing compounds concentrations (10 pts, 1/2 log dilution, 20 μM top concentration) was normalized to DMSO control wells. The normalized cell counts were fit with dose response curves and a GI50 was calculated.

CDK2/Cyclin E1 [3] = biological target: T1, CDK2/Cyclin E1; experiment: CDK2/Cyclin E1 Caliper LabChip EZ Reader mobility shift assay; assay type: biochemical; settings: 2.5 nM CDK2/Cyclin E1, 100 μM ATP, 1.5 μM fluorescent peptide, 30 min preincubation; read-out: Caliper Assay (CDK2/CCNE1): IC50
Protocol: Example A1: CDK2/Cyclin E1 Caliper Assay
Inhibition of CDK2/Cyclin E1 activity in the presence of compounds of the present disclosure was evaluated using a Caliper LabChip® EZ Reader mobility shift assay. In the assay, CDK2/Cyclin E1 (Eurofins, 14-475) catalyzed the phosphorylation of a fluorescently tagged peptide 5-FAM-QSPKKG-CONH2 (PerkinElmer, FL Peptide 18) which induced a difference in capillary electrophoresis mobility. The peptide substrate and product were measured, and the conversion ratio was used to determine the inhibition (as % activity and IC50 values) of CDK2/Cyclin E1. Reactions contained 50 mM HEPES pH 7.5, 10 mM MgCl2, 1 mM EDTA, 2 mM DTT, 0.01% Brij35, 0.5 mg/mL BSA, 0.1% DMSO, 2.5 nM CDK2/Cyclin E1, 100 μM ATP, and 1.5 μM fluorescent peptide substrate.
Dose titrations of inhibitors in 100% DMSO were combined with 3.25 nM CDK2/Cyclin E1 and 130 μM of ATP in reaction buffer. The mixtures were incubated for 30 minutes before the addition of fluorescent peptide substrate to initiate the kinase reaction. The final conditions were 2.5 nM CDK2/Cyclin E1, 100 μM ATP, and 1.5 μM fluorescent peptide. The reactions were stopped after 100 minutes with the addition of EDTA (400 mM final EDTA concentration). The stopped reactions were analyzed on a Caliper LabChip® EZ Reader II. The conversion ratios were normalized to yield % activity, plotted against compound concentration, and fit to a four-parameter equation to determine the IC50 for each compound.

| IC50 (CDK2/Cyclin E1 [1]) | IC50 (CDK2/Cyclin E1 [3]) | Structure (SMILES) | IC50 [2] |
| --- | --- | --- | --- |
| ≤ 0.5 µM |  | C[C@@H](OCC1CCCCC1)[C@H](NC(=O)[C@@H]1CN(Cc2cnn(Cc3ccccc3)c2)C(=O)C12CN(C(=O)[C@H]1CC1(C)C)C2)C(=O)N1CCC(c2nccs2)CC1 [Compound I-5, (S)-6-((1-benzyl-1H-pyrazol-4-yl)methyl)-N-((2S,3R)-3-(cyclohexylmethoxy)-1-oxo-1-(4-(thiazol-2-yl)piperidin-1-yl)butan-2-yl)-2-((S)-2,2-dimethylcyclopropane-1-carbonyl)-5-oxo-2,6-diazaspiro[3.4]octane-8-carboxamide] | ≤ 0.5 µM |
| > 10 µM |  | C[C@@H](OCC1CCCCC1)[C@H](NC(=O)[C@@H]1CN(C(=O)c2cncs2)CC12CCOCC2)C(=O)N1CCC(c2ccc(C(=O)O)cc2)CC1 (single isomer, unassigned) [I-4 2nd, 4-(1-(O-(cyclohexylmethyl)-N-(2-(thiazole-5-carbonyl)-8-oxa-2-azaspiro[4.5]decane-4-carbonyl)-L-threonyl)piperidin-4-yl)benzoic acid] | > 20 µM |
| > 100 µM | > 10 µM | CC1(C)C[C@@H]1C(=O)N1CC2(C1)C(=O)N(Cc1cncs1)CC2c1nnc(C(F)(F)c2ccc(Cl)c(Cl)c2)o1 (stereo partly drawn) [Compound I-6, 8-(5-((3,4-dichlorophenyl)difluoromethyl)-1,3,4-oxadiazol-2-yl)-2-((S)-2,2-dimethylcyclopropane-1-carbonyl)-6-(thiazol-5-ylmethyl)-2,6-diazaspiro[3.4]octan-5-one] | > 20 µM |
|  | > 10 µM | CC1(C)C[C@@H]1C(=O)N1CCC2(CC1)CN(C(=O)c1cncs1)CC2c1nnc(C(F)(F)c2ccc(Cl)c(Cl)c2)o1 (stereo partly drawn) [Compound I-15, (4-(5-((3,4-dichlorophenyl)difluoromethyl)-1,3,4-oxadiazol-2-yl)-2-(thiazole-5-carbonyl)-2,8-diazaspiro[4.5]decan-8-yl)((S)-2,2-dimethylcyclopropyl)methanone] | > 20 µM |
|  | 1 to 10 µM | C[C@@H](OCC1CCCCC1)[C@H](NC(=O)[C@@H]1CN(C(=O)OC(C)(C)C)CC12CN(C(=O)[C@H]1CC1(C)C)C2)C(=O)N1CCOCC1 [Compound I-33] | > 20 µM |
| ≤ 0.5 µM |  | C[C@@H](OCC1CCCCC1)[C@H](NC(=O)C1CN(C(=O)c2cncs2)CC12CCN(C(=O)[C@H]1CC1(C)C)CC2)C(=O)N1CCC(c2ccc(C(=O)O)cc2)CC1 (stereo partly drawn) [Compound I-41, 4-(1-(O-(cyclohexylmethyl)-N-(8-((S)-2,2-dimethylcyclopropane-1-carbonyl)-2-(thiazole-5-carbonyl)-2,8-diazaspiro[4.5]decane-4-carbonyl)-L-threonyl)piperidin-4-yl)benzoic acid] | > 20 µM |
| > 10 µM |  | C[C@@H](OCC1CCCCC1)[C@H](NC(=O)[C@H]1CN(C(=O)c2cncs2)CC12CCOCC2)C(=O)N1CCC(c2ccc(C(=O)O)cc2)CC1 (single isomer, unassigned) [I-4 1st, 4-(1-(O-(cyclohexylmethyl)-N-(2-(thiazole-5-carbonyl)-8-oxa-2-azaspiro[4.5]decane-4-carbonyl)-L-threonyl)piperidin-4-yl)benzoic acid] | > 20 µM |
|  | > 10 µM | C[C@@H](OCC1CCCCC1)[C@H](NC(=O)[C@H]1CCOC12CN(C(=O)[C@H]1CC1(C)C)C2)C(=O)N1CCCCC1 (single isomer, unassigned) [I-29 2nd] | > 20 µM |
|  | > 10 µM | C[C@@H](OCC1CCCCC1)[C@H](NC(=O)[C@@H]1CNCC12CN(C(=O)[C@H]1CC1(C)C)C2)C(=O)N1CCCCC1 [Compound I-37, (S)—N-((2S,3R)-3-(cyclohexylmethoxy)-1-oxo-1-(piperidin-1-yl)butan-2-yl)-2-((S)-2,2-dimethylcyclopropane-1-carbonyl)-2,6-diazaspiro[3.4]octane-8-carboxamide] | > 20 µM |
|  | 0.1 to 1 µM | CC(=O)N[C@@H](C(=O)NC1CN(C(=O)c2cnn(Cc3ccccc3)c2)CC12CN(C(=O)[C@H]1CC1(C)C)C2)[C@H](C)OCC1CCCCC1 (stereo partly drawn) [Compound I-25, (2R,3S)-2-acetamido-N-(6-(1-benzyl-1H-pyrazole-4-carbonyl)-2-((S)-2,2-dimethylcyclopropane-1-carbonyl)-2,6-diazaspiro[3.4]octan-8-yl)-3-(cyclohexylmethoxy)butanamide] | > 20 µM |
|  | > 10 µM | CN(C(=O)C1CC2(C1)CN(C(=O)c1cncs1)CC2c1nnc(C(F)(F)c2ccc(Cl)c(Cl)c2)o1)C1CC1 (racemic) [Compound I-16, rac-(R)—N-cyclopropyl-8-(5-((3,4-dichlorophenyl)difluoromethyl)-1,3,4-oxadiazol-2-yl)-N-methyl-6-(thiazole-5-carbonyl)-6-azaspiro[3.4]octane-2-carboxamide] | > 20 µM |
|  | > 10 µM | CC(=O)N1C[C@@H](C(N)=O)C2(C1)CN(C(C)=O)C2 [Compound I-22, (S)-2,6-diacetyl-2,6-diazaspiro[3.4]octane-8-carboxamide] | > 20 µM |
|  | > 10 µM | C[C@@H](OCC1CCCCC1)[C@H](NC(=O)[C@@H]1CCOC12CN(C(=O)[C@H]1CC1(C)C)C2)C(=O)N1CCC[C@H](N)C1 (single isomer, unassigned) [I-31 1st] | > 20 µM |
|  | > 10 µM | O=C(c1cc(F)n[nH]1)N1CC(c2nnc(C(F)(F)c3ccc(Cl)c(Cl)c3)o2)C2(CCOCC2)C1 (centres unmarked) [Compound I-1] | > 20 µM |
|  | > 10 µM | C[C@@H](OCC1CCCCC1)[C@H](NC(=O)[C@@H]1CCOC12CN(C(=O)[C@H]1CC1(C)C)C2)C(=O)N1CCC[C@@H](N)C1 (single isomer, unassigned) [I-34 1st] | > 20 µM |
|  | > 10 µM | CC(C)(C)OC(=O)N1CCC2(CC1)CN(C(=O)c1cncs1)CC2c1nnc(C(F)(F)c2ccc(Cl)c(Cl)c2)o1 (centres unmarked) [Compound I-14, tert-butyl 4-(5-((3,4-dichlorophenyl)difluoromethyl)-1,3,4-oxadiazol-2-yl)-2-(thiazole-5-carbonyl)-2,8-diazaspiro[4.5]decane-8-carboxylate] | 5 to 20 µM |
|  | > 10 µM | CC1(C)C[C@@H]1C(=O)N1CC2(CN(C(=O)c3cncs3)CC2C#N)C1 (stereo partly drawn) [Compound I-27, 2-((S)-2,2-dimethylcyclopropane-1-carbonyl)-6-(thiazole-5-carbonyl)-2,6-diazaspiro[3.4]octane-8-carbonitrile] | > 20 µM |
